Values of other authors in US20030032669A1, “Pesticidal compositions and their use as protecting agents” (priority 2000, published 2003).

How the values were obtained:
[1] = tested on: larvae of German cockroach Blatella germanica; conditions: exposure to 100 ng/cm^2; after 3 weeks
[2] = tested on: adult grain weevils Sitophilus granarius; conditions: wheat treated with 1 μg/g; after 50 days
[3] = alcohols, ketones and toluene
[4] = aqueous solutions at 50° C.

SMILES: O=C(NC(=O)c1c(F)cccc1F)Nc1ccc(Oc2ccc(C(F)(F)F)cc2Cl)cc1F [flufenoxuron, 1-[4-(2-chloro-trifluoro-p-tolyloxy)-2-fluorophenyl]-3-(2,6-difluorobenzoyl)urea]
- phyto-toxicity (plants): no recorded phyto-toxicity
- degradation in soil: rapidly degraded

SMILES: CCOC(=O)NCCOc1ccc(Oc2ccccc2)cc1 [fenoxycarb, ethyl 2-(4-phenoxyphenoxy)ethylcarbamate]
- reduction of population of larvae of German cockroach [1]: 90%
- reduction of population of adult grain weevils [2]: 100%
- solubility in organic solvents [3]: very soluble
- stability to hydrolysis [4]: stable to hydrolysis
- degradation in soil: rapidly degraded
